Experiments:
Echinochloa crus-galli [1] = assay: Pre-emergence herbicidal effect; type: in vivo; conditions: 3 weeks
Method in brief: (§1)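 Visual scoring at 3 weeks, relative to untreated plants, gives percent efficacy, 0% meaning like control and 100% dead plants. Weed and crop seeds in sandy loam pots received soil-surface application of WP or EC formulations in 600 to 800 L/ha water plus 0.2% wetting agent.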

Stellaria media = assay: Pre-emergence herbicidal effect; type: in vivo; conditions: 3 weeks
Method in brief: as §1

Polygonum convolvulus = assay: Pre-emergence herbicidal effect; type: in vivo; conditions: 3 weeks
Method in brief: as §1

Matricaria inodora = assay: Pre-emergence herbicidal effect; type: in vivo; conditions: 3 weeks
Method in brief: as §1

Viola tricolor = assay: Pre-emergence herbicidal effect; type: in vivo; conditions: 3 weeks
Method in brief: as §1

Setaria viridis [2] = assay: Pre-emergence herbicidal effect; type: in vivo; conditions: 3 weeks
Method in brief: as §1

Alopecurus myosuroides [3] = assay: Pre-emergence herbicidal effect; type: in vivo; conditions: 320 g/ha, 3 weeks
Method in brief: as §1

Amaranthus retroflexus = assay: Pre-emergence herbicidal effect; type: in vivo; conditions: 3 weeks
Method in brief: as §1

Avena fatua [4] = assay: Pre-emergence herbicidal effect; type: in vivo; conditions: 320 g/ha, 3 weeks
Method in brief: as §1

Lolium multiflorum [5] = assay: Pre-emergence herbicidal effect; type: in vivo; conditions: 3 weeks
Method in brief: as §1

Veronica persica = assay: Pre-emergence herbicidal effect; type: in vivo; conditions: 3 weeks
Method in brief: as §1

Zea mays [6] = assay: Pre-emergence herbicidal effect and crop plant compatibility; type: in vivo; conditions: 3 weeks
Method in brief: as §1

[7] = system: Triticum aestivum (spring); assay: as above; type: in vivo; conditions: 3 weeks
Method in brief: as §1

[8] = logp (HCOOH), physicochemical characterization
Zea mays [9] = assay: Post-emergence herbicidal effect and crop plant compatibility; type: in vivo; conditions: visual scoring after about 3 weeks
Method in brief: (§2)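 One-leaf-stage seedlings, 2 to 3 weeks old and grown in sandy loam, received an aqueous spray of WP- or EC-formulated compound (600 to 800 L/ha, 0.2% wetting agent) and then stood in the greenhouse for about 3 weeks before visual scoring against controls.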

Brassica napus = assay: as above; type: in vivo; conditions: 80 g/ha, visual scoring after about 3 weeks
Method in brief: as §2

Oryza sativa [10] = assay: as above; type: in vivo; conditions: visual scoring after about 3 weeks
Method in brief: as §2

[11] = system: Triticum aestivum (spring); assay: as above; type: in vivo; conditions: visual scoring after about 3 weeks
Method in brief: as §2

Abutilon theophrasti = assay: Pre-emergence herbicidal effect; type: in vivo; conditions: 3 weeks
Method in brief: as §1

Oryza sativa [12] = assay: Pre-emergence herbicidal effect and crop plant compatibility; type: in vivo; conditions: 3 weeks
Method in brief: as §1

Ipomoea purpurea [13] = assay: Pre-emergence herbicidal effect; type: in vivo; conditions: 320 g/ha, 3 weeks
Method in brief: as §1

Echinochloa crus-galli [14] = assay: Post-emergence herbicidal effect; type: in vivo; conditions: visual scoring after about 3 weeks
Method in brief: as §2

Setaria viridis [15] = assay: Post-emergence herbicidal effect; type: in vivo; conditions: 320 g/ha (dose by row order of upper half), scoring after about 3 weeks
Method in brief: as §2

Alopecurus myosuroides [16] = assay: Post-emergence herbicidal effect; type: in vivo; conditions: 320 g/ha, visual scoring after about 3 weeks
Method in brief: as §2

Avena fatua [17] = assay: Post-emergence herbicidal effect; type: in vivo; conditions: 320 g/ha, visual scoring after about 3 weeks
Method in brief: as §2

Ipomoea purpurea [18] = assay: Post-emergence herbicidal effect; type: in vivo; conditions: scoring after about 3 weeks
Method in brief: as §2

Lolium multiflorum [19] = assay: Post-emergence herbicidal effect; type: in vivo; conditions: 320 g/ha, visual scoring after about 3 weeks
Method in brief: as §2

| SMILES | ECHCG herbicidal activity in percent (Echinochloa crus-galli [1]; 80 g/ha) [%] | ECHCG herbicidal activity in percent (Echinochloa crus-galli [1]; 320 g/ha) [%] | STEME herbicidal activity in percent (Stellaria media; 80 g/ha) [%] | STEME herbicidal activity in percent (Stellaria media; 320 g/ha) [%] | POLCO herbicidal activity in percent (Polygonum convolvulus; 320 g/ha) [%] | MATIN herbicidal activity in percent (Matricaria inodora; 320 g/ha) [%] | VIOTR herbicidal activity in percent (Viola tricolor; 80 g/ha) [%] | VIOTR herbicidal activity in percent (Viola tricolor; 320 g/ha) [%] | SETVI herbicidal activity in percent (Setaria viridis [2]; 320 g/ha) [%] | AMARE herbicidal activity in percent (Amaranthus retroflexus; 320 g/ha) [%] | LOLMU herbicidal activity in percent (Lolium multiflorum [5]; 320 g/ha) [%] | VERPE herbicidal activity in percent (Veronica persica; 80 g/ha) [%] | VERPE herbicidal activity in percent (Veronica persica; 320 g/ha) [%] | ZEAMX herbicidal activity in percent (Zea mays [6]; 80 g/ha) [%] | logp (HCOOH) [8] | post-emergence efficacy ZEAMX (Zea mays [9]; 80 g/ha) [%] | post-emergence efficacy ZEAMX (Zea mays [9]; 320 g/ha) [%] | post-emergence efficacy ORYSA (Oryza sativa [10]; 80 g/ha) [%] | post-emergence efficacy TRZAS ([11]; 80 g/ha) [%] | post-emergence efficacy TRZAS ([11]; 320 g/ha) [%] | also measured |
| --- | --- | --- | --- | --- | --- | --- | --- | --- | --- | --- | --- | --- | --- | --- | --- | --- | --- | --- | --- | --- | --- |
| CC1CC(=O)c2cnc(N[C@@H]3CCCc4ccccc43)nc2C1 (some centres unmarked) [2.26] | 80 | 100 | 100 | 100 | 100 | 100 | 90 | 100 | 90 | 100 | 100 | 80 | 100 | 0 | oily; logp (HCOOH): 3.45; 1H-NMR (CDCl3, 400 MHZ, δ in ppm): 1.15 (m, 3H, CH3); | 0 | 0 | 0 | 0 | 0 | ALOMY herbicidal activity in percent (Alopecurus myosuroides [3]): 90%; AMARE herbicidal activity in percent (Amaranthus retroflexus; 80 g/ha): 100%; AVEFA herbicidal activity in percent (Avena fatua [4]): 90%; TRZAS herbicidal activity in percent ([7]; 80 g/ha): 0%; post-emergence efficacy BRSNW (Brassica napus): 20%; post-emergence efficacy ORYSA (Oryza sativa [10]; 320 g/ha): 0% |
| Cc1ccc2c(c1)[C@H](Nc1ncc3c(n1)CC(c1ccc(F)cc1)CC3=O)[C@@H](C)C2 (some centres unmarked) [2.52] | – | 100 | – | 100 | 60 | 100 | 100 | 100 | 70 | 100 | 90 | 90 | 100 | 0 | oily; logp (HCOOH): 4.87; 1H-NMR (CDCl3, 400 MHZ, δ in ppm): 1.25 (t, 3H, CH3); | 0 | 0 | 0 | 0 | 0 | ABUTH herbicidal activity in percent (Abutilon theophrasti; 320 g/ha): 0%; ZEAMX herbicidal activity in percent (Zea mays [6]; 320 g/ha): 10%; ORYSA herbicidal activity in percent (Oryza sativa [12]; 80 g/ha): 0%; ORYSA herbicidal activity in percent (Oryza sativa [12]; 320 g/ha): 20%; TRZAS herbicidal activity in percent ([7]; 80 g/ha): 0%; TRZAS herbicidal activity in percent ([7]; 320 g/ha): 30%; post-emergence efficacy BRSNW (Brassica napus): 20%; post-emergence efficacy ORYSA (Oryza sativa [10]; 320 g/ha): 0% |
| Cc1ccc2c(c1)[C@H](Nc1ncc3c(n1)CC(C)(C)CC3=O)[C@@H](C)C2 [2.45] | 100 | 100 | 100 | 100 | 100 | 90 | 100 | 100 | 100 | 100 | 100 | 100 | 100 | 10 | oily; logp (HCOOH): 4.23; 1H-NMR (CDCl3, 400 MHZ, δ in ppm): 1.10 (m, 6H, | 0 | 0 | 20 | 10 | 10 | POLCO herbicidal activity in percent (Polygonum convolvulus; 80 g/ha): 100%; ABUTH herbicidal activity in percent (Abutilon theophrasti; 80 g/ha): 80%; ABUTH herbicidal activity in percent (Abutilon theophrasti; 320 g/ha): 80%; MATIN herbicidal activity in percent (Matricaria inodora; 80 g/ha): 90%; SETVI herbicidal activity in percent (Setaria viridis [2]; 80 g/ha): 100%; ALOMY herbicidal activity in percent (Alopecurus myosuroides [3]): 90%; AMARE herbicidal activity in percent (Amaranthus retroflexus; 80 g/ha): 100%; AVEFA herbicidal activity in percent (Avena fatua [4]): 80%; PHBPU herbicidal activity in percent (Ipomoea purpurea [13]): 90%; LOLMU herbicidal activity in percent (Lolium multiflorum [5]; 80 g/ha): 80%; ORYSA herbicidal activity in percent (Oryza sativa [12]; 80 g/ha): 0%; ORYSA herbicidal activity in percent (Oryza sativa [12]; 320 g/ha): 10%; post-emergence efficacy ECHCG (Echinochloa crus-galli [14]; 80 g/ha): 100%; post-emergence efficacy ECHCG (Echinochloa crus-galli [14]; 320 g/ha): 100%; post-emergence efficacy SETVI (Setaria viridis [15]): 90%; post-emergence efficacy ALOMY (Alopecurus myosuroides [16]): 80%; post-emergence efficacy AVEFA (Avena fatua [17]): 80%; post-emergence efficacy PHBPU (Ipomoea purpurea [18]; 80 g/ha (dose by row order of upper half)): 100%; post-emergence efficacy PHBPU (Ipomoea purpurea [18]; 320 g/ha (dose by row order of upper half)): 100%; post-emergence efficacy LOLMU (Lolium multiflorum [19]): 100% |

From patent publication US10183914B2 (BAYER CROPSCIENCE AKTIENGESELLSCHAFT, priority 2014, dated 2019)
